# Measurements as given in US20130190370A1, “Novel Tetrahydronaphalene Antagonists to the Thromboxane A2 (TP) Receptor” (The Trustees of the University of Pennsylvania, priority 2010, published 2013).
# Tests used:
# [1] = Pro-drug study: plasma levels of compound and carboxylic acid hydrolysis product (51280) by LC-MS/MS; assay type: in vivo; settings: female mice, 5 mg/kg, 1 h after injection
# Method: Ester and amide examples can serve as pro-drugs to release the potent carboxylic acid TP receptor antagonist CNDR-51280. Compounds in were administered at 5 mg/kg to female mice, and levels of the compound and the carboxylic acid hydrolysis product (51280) were evaluated by LC-MS/MS 1 h after injection (Table 3).
# human TP receptor [2] = target: T1, human TP receptor (Homo sapiens, UniProt P21731); assay: Radioligand binding assay (3H-SQ29,548), human TP receptor; settings: hTP receptor
# T1 construct: expressed in transfected cells
# T1 sequence (P21731 1-343): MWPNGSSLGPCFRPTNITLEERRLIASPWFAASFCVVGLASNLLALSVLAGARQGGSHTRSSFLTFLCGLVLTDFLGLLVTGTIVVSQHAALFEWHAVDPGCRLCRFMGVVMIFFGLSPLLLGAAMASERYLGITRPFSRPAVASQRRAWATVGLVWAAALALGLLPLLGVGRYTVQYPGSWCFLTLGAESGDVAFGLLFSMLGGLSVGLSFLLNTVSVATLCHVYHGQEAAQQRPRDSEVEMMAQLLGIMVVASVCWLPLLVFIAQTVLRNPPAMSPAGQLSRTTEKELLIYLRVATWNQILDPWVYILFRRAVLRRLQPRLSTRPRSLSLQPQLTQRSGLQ
# Method: (§1) QBI-HEK 293A cells expressing human or mouse TxA2 (TP) receptor were grown as described previously and harvested in phosphate-buffered saline with 1 mM EDTA. The cell pellet was homogenized in a glass homogenizer in 20 mM Hepes, 1 mM EGTA, 0.5 mM DTT with protease inhibitor cocktail. The homogenate was initially centrifuged at 1000×g for 10 minutes at 8° C. to remove cell debris. The homogenate was then centrifuged in a Beckman L8-70M ultracentrifuge (Beckman-Coulter, Brea, Calif., USA) at 21,000 rpm for 30 minutes at 4° C., and the pellet was resuspended in 20 mM Hepes, 1 mM EGTA, 100 mM NaCl. Membrane preparations were normalized to protein level as determined with a BCA assay (ThermoFisher, Rockland, Ill.) and stored at −80° C.
# (§2) Test antagonists were incubated at 10 different concentrations with 25 μg membrane and 25 nM ^3H-SQ29,548 (PerkinElmer, Waltham, Mass., USA) in 50 mM Tris, 4 mM CaCl2, 0.1% ascorbic acid pH 7.5 for 2 hours at 25° C. in 96-well polystyrene plates. Separation of bound from free radioligand was accomplished by rapid vacuum filtration onto 96-well GF/B filter plates (PerkinElmer, Waltham, Mass., USA). Filters were washed 8 times in 50 mM Tris, pH 6.9 and allowed to dry for 16 hours, Plates were sealed and filters dissolved in 50 μL Betaplate Scintillation fluid (PerkinElmer, Waltham, Mass., USA) and read on a scintillation counter. Data are presented as percent total binding as calculated by a minimum of 3 wells containing membrane and ^3H-SQ29,548 without antagonist.
# (§3) Equilibrium dissociation constants (Kd), IC50, and Schild regression analyses was performed with GraphPad Prism software (GraphPad Software Inc., La Jolla, Calif., USA).
# (§4) To facilitate the characterization of the new compounds, cell-based TP receptor functional assays were optimized. HEK293 clones have been produced that stably express the human (hTP) or mouse (mTP) TP receptor (a isoform), and treatment of these clones with I-BOP ([1S-[1α,2α(Z),3β(1E,3S*),4α]]-7-[3-[3-hydroxy-4-(4-iodophenoxy)-1-butenyl]-7-oxabicyclo[2.2.1]hept-2-yl]-5-heptenoic acid) results in increased production of inositol triphosphate (IP3) (Knezevic, et al., 1993, Blood 82:A156; Shenker, et al., 1991, J Biol Chem 266:9309-9313; Huang, et al., 2004, Cell Signal 16:521-533) which can be quantified by measuring the breakdown product, inositol monophosphates (IP1), using a commercial time-resolved fluorescence assay. […] A radioligand binding assay was also developed to allow for the determination of binding affinities of compounds at the hTP and mTP receptors.
# mouse TP receptor [3] = target: T2, mouse TP receptor (Mus musculus, UniProt P30987); assay: Radioligand binding assay (3H-SQ29,548), mouse TP receptor; settings: mTP receptor
# T2 construct: expressed in transfected cells
# T2 sequence (P30987 1-341): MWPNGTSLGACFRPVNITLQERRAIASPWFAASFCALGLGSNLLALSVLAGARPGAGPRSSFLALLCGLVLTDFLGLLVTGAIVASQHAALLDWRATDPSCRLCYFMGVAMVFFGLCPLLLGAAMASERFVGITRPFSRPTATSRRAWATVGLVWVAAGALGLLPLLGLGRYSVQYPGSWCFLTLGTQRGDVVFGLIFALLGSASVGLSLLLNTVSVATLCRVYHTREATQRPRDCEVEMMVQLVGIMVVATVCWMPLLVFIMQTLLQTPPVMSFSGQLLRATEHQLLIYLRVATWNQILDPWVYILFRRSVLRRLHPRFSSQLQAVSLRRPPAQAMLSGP
# Method: as §1, §2, §3, §4
# mouse TP receptor [4] = target: T2, mouse TP receptor; assay: IP1 functional HTRF assay, mouse TP receptor; assay type: cell-based; settings: I-BOP stimulated IP1
# Method: (§5) Functional activity of the TP receptor was measured by homogenous time-resolved fluorescence (HTRF) (IP-One Tb, Cisbio, Bedford, Mass., USA). QBI-HEK 293A (MP Biomedicals, Solon, Ohio, USA) cells were transfected with human TP receptor or mouse TP receptor cDNAs cloned into the pcDNA5/TO vector (Invitrogen, Carlsbad, Calif., USA), and stable transformants were selected. Cells were plated at 200,000 cells/mL in DMEM containing 4.5 g/L glucose (Invitrogen, Carlsbad, Calif., USA), 10% fetal bovine serum, L-glutamine, and penicillin/streptomycin into 384-well plates (Grenier Bio-One, Monroe, N.C., USA), followed by incubation for 16 hours at 37° C. with 5% CO2. Culture media was removed and cells were then incubated for 15 min at 37° C. with 5% CO2 in 10 mM Hepes, 1 mM CaCl2, 0.4 mM MgCl2, 4.2 mM KCl, 146 mM NaCl, 5.5 mM glucose, 50 mM LiCl, pH 7.4 (stimulation buffer) containing varying concentrations of test antagonist. I-BOP ([1S-[1α,2α(Z),3β(1E,3S*),4α]]-7-[3-[3-hydroxy-4-(4-iodophenoxy)-1-butenyl]-7-oxabicyclo[2.2.1]hept-2-yl]-5-heptenoic acid) (Cayman Chemicals, Ann Arbor, Mich., USA) was added at a final concentration of 1.6 nM in stimulation buffer and incubated for 1 hour at 37° C. with 5% CO2. […] Plates were then read on a Spectramax M5 microplate reader (Molecular Devices, Sunnyvale, Calif., USA). Data are expressed as the ratio of 665 nm/620 nm fluorescence. […]
# human TP receptor [5] = target: T1, human TP receptor; assay: IP1 functional HTRF assay, human TP receptor; assay type: cell-based; settings: I-BOP stimulated IP1
# Method: as §5
compound,measurement,setting,value
"O=C(O)CCc1cccc2c1CCC(NS(=O)(=O)c1ccc(Cl)cc1)C2 (centres unmarked) [Compound 51280, 3-(6-(4-Chloroplienyistilfonamido)-5,6,7,8-tetrahydronaplithalen-1-yl)propanaic acid]",Plasma (compound),[1],10376 (+/− 3480) nM
same,affinity for TP receptor,human TP receptor [2],high affinity
same,affinity for TP receptor,mouse TP receptor [3],high affinity
same,antagonist activity,mouse TP receptor [4],potent antagonist
same,antagonist activity,human TP receptor [5],potent antagonist
